Converted amounts (≈) assume the structure as drawn.
What was measured:
Format in all cases: cell-based
S. aureus UC9213 = assay: MIC by standard agar dilution, S. aureus UC9213; conditions: Staphylococcus aureus, UC9213, Mueller Hinton agar, incubated overnight at 35° C.
Excerpt: (§1) The in vitro activity of compounds of the subject invention may be assessed by standard testing procedures such as the determination of minimum inhibitory concentration (MIC) by agar dilution as described in “Approved Standard. Methods for Dilution Antimicrobial Susceptibility Tests for Bacteria that Grow Aerobically,” 3rd ed., published 1993 by the National Committee for Clinical Laboratory standards, Villanova, Pa., USA.
(§2) The in vitro MICs of test compounds may be determined by a standard agar dilution method. A stock drug solution of each analog is prepared in a preferred solvent, usually DMSO:H2O (1:3). Serial 2-fold dilutions of each sample are made using 1.0 mL aliquots of sterile distilled water. To each 1.0 mL aliquot of drug is added 9 mL of molten Mueller Hinton agar medium. The drug-supplemented agar is mixed, poured into 15×100 mm petri dishes, and allowed to solidify and dry prior to inoculation.
(§3) Vials of each of the test organisms are maintained frozen in the vapor phase of a liquid nitrogen freezer. Test cultures are grown overnight at 35° C. on the medium appropriate for the organism. Colonies are harvested with a sterile swab, and cell suspensions are prepared in Trypticase Soy broth (TSB) to equal the turbidity of a 0.5 McFarland standard. A 1:20 dilution of each suspension is made in TSB. The plates containing the drug supplemented agar are inoculated with a 0.001 mL drop of the cell suspension using a Steers replicator, yielding approximately 10^4 to 10^5 cells per spot. The plates are incubated overnight at 35° C.
(§4) Following incubation the Minimum Inhibitory Concentration (MIC μg/mL), the lowest concentration of drug that inhibits visible growth of the organism, is read and recorded.

S. pneumoniae UC9912 = assay: MIC by standard agar dilution, S. pneumoniae UC9912; conditions: Streptococcus pneumoniae, UC9912, Mueller Hinton agar, incubated overnight at 35° C.
Excerpt: as §1, §2, §3, §4

H. influenzae 30063 = assay: MIC by standard agar dilution, H. influenzae 30063; conditions: Haemophilus influenzae, 30063, agar dilution, Mueller Hinton agar, incubated overnight at 35° C.; read-out: H. influenzae 30063 MIC
Excerpt: as §1, §2, §3, §4

Question: CC(=O)NC[C@H]1CN(c2ccc(N3CCOCC3)c(F)c2)C(=O)O1 [linezolid, reference compound] was tested. Which MIC (S. aureus UC9213) did it give?
Answer: 4 µg/mL (≈ 11.9 µM)

Question: What about the MIC (S. pneumoniae UC9912) of the same compound?
Answer: 1 µg/mL (≈ 2.96 µM)

Question: What about the MIC (H. influenzae 30063) of the same compound?
Answer: 16 µg/mL (≈ 47.4 µM)

Question: Which results are given for CC(=O)NC[C@H]1CN(c2ccc([C@H]3[C@@H]4CN(c5ncccn5)C[C@@H]43)c(F)c2)C(=O)O1 [Example 43, N-[((5S)-3-{3-fluoro-4-[exo-(1R,5S)-3-(pyrimidin-2-yl)-3-azabicyclo[3.1.0]hex-6-yl]phenyl}-2-oxo-1,3-oxazolidin-5-yl)methyl]acetamide]?
Answer: MIC (S. aureus UC9213): 4 µg/mL (≈ 9.72 µM); MIC (S. pneumoniae UC9912): 1 µg/mL (≈ 2.43 µM); MIC (H. influenzae 30063): 32 µg/mL (≈ 77.8 µM)

Question: Which results are given for NC(=O)N1C[C@@H]2[C@H](C1)[C@H]2c1ccc(N2C[C@H](CNC(=S)C(F)F)OC2=O)cc1F [Example 11, exo-(1R,5S)-6-[4-((5S)-5-{[(2,2-difluoroethanethioyl)amino]methyl}-2-oxo-1,3-oxazolidin-3-yl)-2-fluorophenyl]-3-azabicyclo[3.1.0]hexane-3-carboxamide]?
Answer: MIC (S. aureus UC9213): 0.5 µg/mL (≈ 1.17 µM); MIC (S. pneumoniae UC9912): 0.25 µg/mL (≈ 0.584 µM); MIC (H. influenzae 30063): 2 µg/mL (≈ 4.67 µM)

Question: Which MIC (S. aureus UC9213) does the source give for CCC(=O)NC[C@H]1CN(c2ccc([C@H]3[C@@H]4CN(C(=O)COC)C[C@@H]43)c(F)c2)C(=O)O1 [Example 27, N-[((5S)-3-{3-fluoro-4-[exo-(1R,5S)-3-methoxyacetyl-3-azabicyclo[3.1.0]hex-6-yl]phenayl}-2-oxo-1,3-oxazolidin-5-yl)methyl]propanamide] here?
Answer: 2 µg/mL (≈ 4.77 µM)

Question: What about the MIC (S. pneumoniae UC9912) of the same compound?
Answer: 0.5 µg/mL (≈ 1.19 µM)

Question: And the MIC (H. influenzae 30063)?
Answer: 8 µg/mL (≈ 19.1 µM)

Question: CCC(=O)NC[C@H]1CN(c2ccc([C@H]3[C@@H]4C[S+]([O-])C[C@@H]43)c(F)c2)C(=O)O1 (stereo partly drawn) [Example 50, N-[((5S)-3-{3-fluoro-4-[exo-(1R,5S)-3-oxido-3-thiabicyclo[3.1.0]hex-6-yl]phenyl}-2-oxo-1,3-oxazolidin-5-yl)methyl]proyanamide] was tested. Which MIC (S. aureus UC9213) did it give?
Answer: 2 µg/mL (≈ 5.26 µM)

Question: And the MIC (S. pneumoniae UC9912)?
Answer: 1 µg/mL (≈ 2.63 µM)

Question: And the MIC (H. influenzae 30063)?
Answer: 4 µg/mL (≈ 10.5 µM)

Question: NC(=O)N1C[C@@H]2[C@H](C1)[C@H]2c1c(F)cc(N2C[C@H](Cn3ccnn3)OC2=O)cc1F [Example 65, exo-(1R,5S)-6-{2,6-difluoro-4-[(5R)-2-oxo-5-(1H-1,2,3-triazol-1-ylmethyl)-1,3-oxazolidin-3-yl]phenyl}-3-azabicyclo[3.1.0]hexane-3-carboxamide] was tested. Which MIC (S. aureus UC9213) did it give?
Answer: 2 µg/mL (≈ 4.95 µM)

Question: And the MIC (S. pneumoniae UC9912)?
Answer: 2 µg/mL (≈ 4.95 µM)

Question: What about the MIC (H. influenzae 30063) of the same compound?
Answer: 16 µg/mL (≈ 39.6 µM)

Question: How did the MIC (S. aureus UC9213) turn out when CCC(=O)NC[C@H]1CN(c2ccc([C@H]3[C@@H]4CN(C(=O)[C@@H](O)CO)C[C@@H]43)c(F)c2)C(=O)O1 [Example 28, N-[((5S)-3-{3-fluoro-4-[exo-(1R,5S)-3-((2S)-2,3-dihydroxypropanoyl)-3-azabicyclo[3.1.0]hex-6-yl]phenyl}-2-oxo-1,3-oxazolidin-5-yl)methyl]propanamide] was run?
Answer: 4 µg/mL (≈ 9.19 µM)

Question: What about the MIC (S. pneumoniae UC9912) of the same compound?
Answer: 4 µg/mL (≈ 9.19 µM)

Question: What about the MIC (H. influenzae 30063) of the same compound?
Answer: 8 µg/mL (≈ 18.4 µM)

Question: For CC(F)(F)C(=O)NC[C@H]1CN(c2ccc([C@H]3[C@@H]4C[S+]([O-])C[C@@H]43)c(F)c2)C(=O)O1 (stereo partly drawn) [Example 54, 2,2-difluoro-N-[((5S)-3-{3-fluoro-4-[exo-(1R,5S)-3-oxido-3-thiabicyclo[3.1.0]-6-yl]phenyl}-2-oxo-1,3-oxazolidin-5-yl)methyl]propanamide], which MIC (S. aureus UC9213) is on record?
Answer: 8 µg/mL (≈ 19.2 µM)

Question: What about the MIC (S. pneumoniae UC9912) of the same compound?
Answer: 4 µg/mL (≈ 9.61 µM)

Question: What about the MIC (H. influenzae 30063) of the same compound?
Answer: 4 µg/mL (≈ 9.61 µM)

Question: Which results are given for CC(=O)NC[C@H]1CN(c2ccc([C@H]3[C@@H]4C[S+]([O-])C[C@@H]43)cc2)C(=O)O1 (stereo partly drawn) [Example 18, N-[((5S)-3-{4-[exo-(1R,5S)-3-oxido-3-thiabicyclo[3.1.0]hex-6-yl]phenyl}-2-oxo-1,3-oxazolidin-5-yl)methyl]acetamide]?
Answer: MIC (S. aureus UC9213): 2 µg/mL (≈ 5.74 µM); MIC (S. pneumoniae UC9912): 0.5 µg/mL (≈ 1.44 µM); MIC (H. influenzae 30063): 4 µg/mL (≈ 11.5 µM)

Question: O=C(CO)NC[C@H]1CN(c2ccc([C@H]3[C@@H]4C[S+]([O-])C[C@@H]43)c(F)c2)C(=O)O1 (stereo partly drawn) [Example 66, N-[((5S)-3-{3-fluoro-4-[exo-(1R,5S)-3-oxido-3-thiabicyclo[3.1.0]hex-6-yl]phenyl}-2-oxo-1,3-oxazolidin-5-yl)methyl]-2-hydroxyacetamide] was tested. Which MIC (S. aureus UC9213) did it give?
Answer: 4 µg/mL (≈ 10.5 µM)

Question: What about the MIC (S. pneumoniae UC9912) of the same compound?
Answer: 2 µg/mL (≈ 5.23 µM)

Question: And the MIC (H. influenzae 30063)?
Answer: 8 µg/mL (≈ 20.9 µM)

Question: Which results are given for CCC(=O)NC[C@H]1CN(c2cc(F)c([C@H]3[C@@H]4CS(=O)(=O)C[C@@H]43)c(F)c2)C(=O)O1 [Example 59, N-[((5S)-3-{3,5-difluoro-4-[exo-(1R,5S)-3,3-dioxido-3-thiabicyclo[3.1.0]hex-6-yl]phenyl}-2-oxo-1,3-oxazolidin-5-yl)methyl]propanamide]?
Answer: MIC (S. aureus UC9213): 1 µg/mL (≈ 2.41 µM); MIC (S. pneumoniae UC9912): 1 µg/mL (≈ 2.41 µM); MIC (H. influenzae 30063): 4 µg/mL (≈ 9.65 µM)

Source: patent US7279494B2, “Antimicrobial [3.1.0] bicyclohexylphenyl-oxazolidinone derivatives and analogues” (Pfizer Inc., priority 2003, dated 2007)
